The text below walks through data of patent publication EP0987275B1, “Molecules that home to a selected organ or tissue in vivo” (LA JOLLA CANCER RESEARCH FOUNDATION, priority 1995, dated 2008).

Where no end group is shown, it is not given here.

In assay [1] the test system is brain. Briefly: In vivo panning of phage peptide display libraries, brain as the selected organ (kidney control). On the set-up: species or system mice. The settings on record: phage recovered from brain; for (% PHAGE): % of the 73 clones sequenced; for # PHAGE DISPLAYING SAME A.A. SEQUENCE: second and third rounds of in vivo panning, 73 cloned phage sequenced. Here is the method:
Phage display libraries were constructed using the fuse 5 vector as described by Koivunen et al. (supra, 1995; see, also, Koivunen et al. Meth. Enzymol. 245:346-369 (1994b), which is incorporated herein by reference). Six libraries encoding peptides designated CX5C (SEQ ID NO: 36), CX6C (SEQ ID NO: 37), CX7C (SEQ ID NO: 38), CX9 (SEQ ID NO: 39), X2CX14CX2 (SEQ ID NO: 40) and X2CX18 (SEQ ID NO: 41) were prepared, where "C" indicates cysteine and "XN" indicates the given number of individually selected amino acids. These libraries can display cyclic peptides when at least two cysteine residues are present in the peptide.
Oligonucleotides were constructed such that "C" was encoded by the codon TGT and "XN" was encoded by NNK, where "N" is equal molar mixtures of A, C, G and T, and where "K" is equal molar mixtures of G and T. Thus, the peptide represented by CX5C (SEQ ID NO: 36) can be represented by an oligonucleotide having the sequence TGT(NNK)5TGT (SEQ ID NO: 42). Oligonucleotides were made double stranded by 3 cycles of PCR amplification, purified and ligated to the nucleic acid encoding the gene III protein in the fuse 5 vector such that, upon expression, the peptide is present as a fusion protein at the N-terminus of the gene III protein.
The vectors were transfected by electroporation into MC1061 cells. Bacteria were cultured for 24 hr in the presence of 20 µg/ml tetracycline, then phage were collected from the supernatant by precipitation twice using polyethylene glycol. Each library contained about 5 x 10^9 to 5 x 10^14 transducing units (TU; individual recombinant phage).
(§1) A mixture of phage libraries containing 1 x 10^14 TU was diluted in 200 µl DMEM and injected into the tail vein of anesthetized BALB\c mice (2 month old females; Jackson Laboratories; Bar Harbor ME); Avertin™ (0.015 ml/g) was used as anesthetic (see Pasqualini and Ruoslahti, supra, 1996). After 1-4 minutes, mice were snap frozen in liquid nitrogen. To recover the phage, carcasses were partially thawed at room temperature for 1 hr, organs were collected and weighed, then were ground in 1 ml DMEM-PI (DMEM containing protease inhibitors (PI); phenylmethylsulfonyl fluoride (PMSF; 1 mM), aprotinin (20 µg/ml), leupeptin (1 µg/ml)).
(§2) Organ samples were washed 3 times with ice cold DMEM-PI containing 1% bovine serum albumin (BSA), then directly incubated with 1 ml K91-kan bacteria for 1 hr. Ten ml NZY medium containing […] tetracycline (NZY/tet) was added to the bacterial culture, the mixture was incubated in a 37°C shaker for 1 hr, then 200 µl aliquots were plated in agar plates containing 40 µg/ml tetracycline (tet/agar).
(§3) Individual colonies containing phage recovered from brain or kidney were grown for 16 hr in 5 ml NZY/tet. The bacterial cultures obtained from the individual colonies were pooled and the phage were purified and re-injected into mice as described above for a second round of in vivo panning. A third round of panning also was performed. Phage DNA was purified from individual bacterial colonies obtained from the second and the third round of in vivo panning and the DNA sequences encoding the peptides expressed by selected phage were determined (see Koivunen et al., supra, 1994b).
Three rounds of in vivo panning in mice were performed. Kidney was used as a control organ. Mice were injected with two different mixtures of phage libraries. The first mixture contained libraries encoding CX9 (SEQ ID NO: 39), CX5C (SEQ ID NO: 36), CX6C (SEQ ID NO: 37) and CX7C (SEQ ID NO: 38) peptides (CX5-7/CX9 mixture; SEQ ID NOS: 36-39). The second mixture contained libraries encoding X2CX14CX2 (SEQ ID NO: 40) and X2CX18 (SEQ ID NO: 41) peptides (X2CX18/X2CX14CX2 mixture; SEQ ID NOS: 40 and 41).
The phage library mixtures were administered to mice via tail vein injection. Phage input was […] of the CX5-7/CX9 (SEQ ID NOS: 36-39) mixture or 1 x 10^14 TU of the X2CX18/X2CX14CX2 (SEQ ID NOS: 40 and 41) mixture. […]

Assay [2] concerns kidney. Briefly: In vivo panning of phage peptide display libraries, kidney as the selected organ (brain control). More on the design: species or system mice. Conditions: phage recovered from kidney; for (% PHAGE): % of the 48 clones sequenced; for # PHAGE DISPLAYING SAME A.A. SEQUENCE: 48 cloned phage sequenced. The procedure:
as §1, §2, §3
The same methodology used to isolate phage expressing brain homing peptides was used to isolate phage expressing peptides that home to kidney. In these experiments, brain was used as the control organ. A mixture of the CX5C (SEQ ID NO: 36) and the CX6C (SEQ ID NO: 37) libraries was administered as described above. Homing of phage to the kidney was obtained and an approximately 3x to 7x enrichment of phage homing to kidney was observed following a second round of in vivo panning.
The amino acid sequences were determined for the inserts in 48 cloned phage that homed to kidney. The peptides expressed by these phage were represented by two predominant sequences, CLPVASC (SEQ ID NO: 21; 46% of the clones sequenced) and CGAREMC (SEQ ID NO: 22; 17% of the clones; see Table 2). In addition, the peptide CKGRSSAC (SEQ ID NO: 23) appeared three times and three other peptides were present twice each.

Assay [3] relates to B16B15b mouse melanoma cells. The assay is described as follows: In vivo panning in mice bearing an implanted mouse melanoma tumor. More on the design: species or system nude mice. Conditions: phage recovered from B16B15b tumors; 89 cloned phage sequenced. The procedure:
Mice bearing a melanoma were produced by implantation of B16B15b mouse melanoma cells, which produce highly vascularized tumors. B16B15b mouse melanoma cells were injected subcutaneously into the mammary fat pad of nude mice (2 months old) and tumors were allowed to grow until the diameter was about 1 cm. In vivo panning was performed as disclosed above. Approximately 1 x 10^12 transducing units of phage expressing the CX5C (SEQ ID NO: 36), CX6C (SEQ ID NO: 37) or […] library were injected, iv, and allowed to circulate for 4 min. Mice then were snap frozen in liquid nitrogen while under anesthesia, tumor tissue and brain (control organ) were removed, and phage were isolated as described above. Three rounds of in vivo panning were performed.
The amino acid sequences were determined for the inserts in 89 cloned phage recovered from the B16B15b tumors. The peptides expressed by these phage were represented by two predominant sequences, CLSGSLSC (SEQ ID NO: 55; 52% of the clones sequenced) and WGTGLC (SEQ ID NO: 52; 25% of the clones; see Table 4).

On to “CANAQSHC (displayed on phage) [peptide from phage recovered from brain]”, for which, in assay [1], the “(% PHAGE)” value is recorded as 1.4% and the “# PHAGE DISPLAYING SAME A.A. SEQUENCE” value turned out to be 1.
Consider “CETLPAC (displayed on phage) [peptide from phage recovered from brain]”, for which, in assay [1], the “(% PHAGE)” value was 1.4% and the “# PHAGE DISPLAYING SAME A.A. SEQUENCE” value is 1.
As for “CFVGHDLC (displayed on phage) [peptide from phage recovered from kidney]”, in assay [2], the “(% PHAGE)” value worked out at 2.1% and the “# PHAGE DISPLAYING SAME A.A. SEQUENCE” value is 1.
On to “CGNPSYRC (displayed on phage) [peptide from phage recovered from brain]”, for which, in assay [1], the “(% PHAGE)” value was 1.4% and the “# PHAGE DISPLAYING SAME A.A. SEQUENCE” value is 1.
For the substance “CGRSLDAC (displayed on phage) [peptide from phage recovered from brain]”, in assay [1], the “(% PHAGE)” value worked out at 1.4% and the “# PHAGE DISPLAYING SAME A.A. SEQUENCE” value is reported as 1.
As to “CGVRLGC (displayed on phage) [peptide from phage recovered from brain]”, in assay [1], the “(% PHAGE)” value was 4.1% and the “# PHAGE DISPLAYING SAME A.A. SEQUENCE” value came out at 3.
For the substance “CIEGVLGGC (cysteine pairing not given here; also: displayed on phage) [peptide from phage recovered from mouse B16B15b melanoma]”, in assay [3], the “# clones” value is on record as 2 and the “% of total phage” value stood at 2%.
On to “CKDWGRIC (displayed on phage) [peptide from phage recovered from brain]”, for which, in assay [1], the “(% PHAGE)” value worked out at 2.8% and the “# PHAGE DISPLAYING SAME A.A. SEQUENCE” value is on record as 2.
On to “CKLLSGVC (displayed on phage) [peptide from phage recovered from kidney]”, for which, in assay [2], the “(% PHAGE)” value came to 2.1% and the “# PHAGE DISPLAYING SAME A.A. SEQUENCE” value was found to be 1.
Regarding “CKLMGEC (displayed on phage) [peptide from phage recovered from kidney]”, in assay [2], the “(% PHAGE)” value was determined as 2.1% and the “# PHAGE DISPLAYING SAME A.A. SEQUENCE” value is given as 1.
On to “CLDWGRIC (displayed on phage) [peptide from phage recovered from brain]”, for which, in assay [1], the “(% PHAGE)” value is given as 2.8% and the “# PHAGE DISPLAYING SAME A.A. SEQUENCE” value came out at 2.
“CLGRSSVC (displayed on phage) [peptide from phage recovered from kidney]”: in assay [2], the “(% PHAGE)” value came out at 4.2% and the “# PHAGE DISPLAYING SAME A.A. SEQUENCE” value is reported as 2.
Turning to “CLMGVHC (displayed on phage) [peptide from phage recovered from kidney]”, in assay [2], the “(% PHAGE)” value worked out at 2.1% and the “# PHAGE DISPLAYING SAME A.A. SEQUENCE” value is listed as 1.
Turning to “CMGRWRLC (displayed on phage) [peptide from phage recovered from kidney]”, in assay [2], the “(% PHAGE)” value is 2.1% and the “# PHAGE DISPLAYING SAME A.A. SEQUENCE” value amounted to 1.
As to “CNSRLQLRC (displayed on phage) [peptide from phage recovered from brain]”, in assay [1], the “(% PHAGE)” value turned out to be 5.5% and the “# PHAGE DISPLAYING SAME A.A. SEQUENCE” value amounted to 4.
Take “CRCLNVC (displayed on phage) [peptide from phage recovered from kidney]”: in assay [2], the “(% PHAGE)” value is 2.1% and the “# PHAGE DISPLAYING SAME A.A. SEQUENCE” value is given as 1.
In the case of “CRHWFDVVC (displayed on phage) [peptide from phage recovered from brain]”, in assay [1], the “(% PHAGE)” value amounted to 1.4% and the “# PHAGE DISPLAYING SAME A.A. SEQUENCE” value was 1.
Turning to “CRRFQDC (displayed on phage) [peptide from phage recovered from kidney]”, in assay [2], the “(% PHAGE)” value turned out to be 2.1% and the “# PHAGE DISPLAYING SAME A.A. SEQUENCE” value came out at 1.
As for “CRTGTLFC (displayed on phage) [peptide from phage recovered from brain]”, in assay [1], the “(% PHAGE)” value was found to be 1.4% and the “# PHAGE DISPLAYING SAME A.A. SEQUENCE” value came to 1.
Consider “CSSTMRC (cysteine pairing not given here; also: displayed on phage) [peptide from phage recovered from mouse B16B15b melanoma]”, for which, in assay [3], the “# clones” value was determined as 2 and the “% of total phage” value came to 2%.
On to “CTRITESC (displayed on phage) [peptide from phage recovered from brain]”, for which, in assay [1], the “(% PHAGE)” value is reported as 2.8% and the “# PHAGE DISPLAYING SAME A.A. SEQUENCE” value is recorded as 2.
Turning to “CTSPGGSC (displayed on phage) [peptide from phage recovered from kidney]”, in assay [2], the “(% PHAGE)” value was found to be 4.2% and the “# PHAGE DISPLAYING SAME A.A. SEQUENCE” value is 2.
On to “CVAWLNC (displayed on phage) [peptide from phage recovered from kidney]”, for which, in assay [2], the “(% PHAGE)” value came to 2.1% and the “# PHAGE DISPLAYING SAME A.A. SEQUENCE” value stood at 1.
In the same order, the values of “CVGECGGC (displayed on phage) [peptide from phage recovered from kidney]” are 2.1% and 1.
With “CVLRGGRC (displayed on phage) [peptide from phage recovered from brain]”, in assay [1], the “(% PHAGE)” value is 6.8% and the “# PHAGE DISPLAYING SAME A.A. SEQUENCE” value is recorded as 5.
With “CWARAQGC (displayed on phage) [peptide from phage recovered from kidney]”, in assay [2], the “(% PHAGE)” value is 4.2% and the “# PHAGE DISPLAYING SAME A.A. SEQUENCE” value is 2.
With “LNCDYQGTNPATSVSVPCTV (displayed on phage) [peptide from phage recovered from brain]”, in assay [1], the “(% PHAGE)” value was determined as 1.4% and the “# PHAGE DISPLAYING SAME A.A. SEQUENCE” value is listed as 1.
With “YPCGGEAVAGVSSVRTMCSE (displayed on phage) [peptide from phage recovered from brain]”, in assay [1], the “(% PHAGE)” value amounted to 1.4% and the “# PHAGE DISPLAYING SAME A.A. SEQUENCE” value was found to be 1.
